Reference: patent publication US10322188B2, “Cell-penetrating drug carrier and the application thereof” (National Central University, priority 2014, dated 2019)
Each block holds one compound with its values, some of them ahead of it. Ends that are not written are not given here.

What was measured:
HepG2 cells [1] = experiment: Cell viability of HepG2 cells incubated with peptide, DOX or a mixture for 1 hour and 6 hours; type: cell-based; settings: 25 µM peptide, 25 µM DOX or mixed solution of both; incubating for 1 hour and 6 hours; FIG. 1A
Protocol: In this example, HepG2 cells are individually incubated in 25 µM peptide solution, 25 µM DOX, and a mixed solution of 25 µM DOX and 25 µM peptide. And the cell viability of the mentioned HepG2 cells is followed after incubating for 1 hour and 6 hours.

HepG2 cells [2] = experiment: DOX fluorescence intensity in HepG2 cytoplasm (intracellular translocation); type: cell-based; settings: incubating time from 1 hour to 6 hours; FIG. 1B
Protocol: Besides, in order to ensure whether the cell-penetrating peptide is helpful to the translocation of DOX, after incubating for 1 to 6 hours, the DOX fluorescence intensity of in HepG2 tumor cell cytoplasm is measured and shown as FIG. 1B.
(§1) In this example, HepG2 cells are individually incubated in DOX, DOX and IL-R57F89 mixed solution, and IL-R57F89-DOX for 1 hour, and measured the fluorescence intensity as FIG. 3.

HepG2 cell = experiment: Cytotoxicity test on HepG2 cells, 24 hours; type: cell-based; settings: acted on HepG2 cell for 24 hour; FIG. 10
Protocol: as §1
DOX and PEG5K-GPLGI-P17-DOX are processed cytotoxicity test.

MMP-2 = target: T1, MMP-2 (Homo sapiens, UniProt P08253); experiment: Digestion of recognizable sequence by MMP-2, followed by RPC / RP-HPLC; type: biochemical
T1 sequence (P08253 110-660): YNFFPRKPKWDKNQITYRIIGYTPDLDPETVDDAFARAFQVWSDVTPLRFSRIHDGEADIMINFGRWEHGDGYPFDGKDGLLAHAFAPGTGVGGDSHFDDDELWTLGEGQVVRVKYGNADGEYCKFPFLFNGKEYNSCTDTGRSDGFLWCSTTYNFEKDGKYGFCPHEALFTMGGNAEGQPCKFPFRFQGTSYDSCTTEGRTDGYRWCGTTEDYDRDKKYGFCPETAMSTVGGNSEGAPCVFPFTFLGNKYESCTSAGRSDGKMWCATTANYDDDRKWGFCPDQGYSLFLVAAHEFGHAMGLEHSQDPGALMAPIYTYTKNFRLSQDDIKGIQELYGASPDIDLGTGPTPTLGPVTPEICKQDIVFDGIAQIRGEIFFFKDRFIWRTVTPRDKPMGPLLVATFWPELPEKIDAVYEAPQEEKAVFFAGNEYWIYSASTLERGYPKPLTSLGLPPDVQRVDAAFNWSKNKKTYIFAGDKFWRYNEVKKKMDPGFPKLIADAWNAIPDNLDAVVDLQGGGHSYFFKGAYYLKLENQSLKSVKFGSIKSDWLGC
Protocol: In the experiment of employing MMP-2 to cut/digest recognizable sequence, after individually adding tryptophan (abbreviated symbol as “W”) at the C-terminus and the N-terminus of the recognizable sequence, the digestion of the recognizable sequence by MMP-2 can be followed by the character absorption wave length at 280 nm.
FIG. 4A to FIG. 4C respectively presents the reversed 1phase chromatography (RPC) analysis of 100 µM P1, P2, and P4 in Table 1 digested by 1 g/mL MMP-2. The gradient elution is 0-100% ACN, 50 min. […] Another recognizable sequence P4 with the same length as P3 and different amino acid fragments is designed.
The ILPW fragment from P4 digestion and the first four amino acid fragment of IL-R57F89 are the same. There are two MMP-2 cut-able sequences, GPLSI-P17 and GPLGI-P17, designed with the sequence individually as GPLS-ILPWRWRFFPWRR (SEQ ID NO: 11) and GPLG-ILPWRWRFFPWRR (SEQ ID NO: 10). The RP-HPLC analysis of GPLSI-P17 and GPLGI-P17 digested by MMP-2 are shown as FIG. 5A and FIG. 5B. It should be noticed that we ensure the peak of IL-R57F89 before the digestion of GPLSI-P17 and GPLGI-P17. […] Therefore, GPLSI-P17 and GPLGI-P17 can be employed as the recognizable sequence of this application.
Including providing protection to recognizable sequence-CPP, proper PEG length will not impact the anchoring of the target cell to the recognizable sequence. Therefore, we try to finger out the effect of the PEG length to the following anchoring. PEG5K-GPLSI-P17 and PEG5K-GPLGI-P17 are individually dissolved in pH 7.4 HEPES buffer. MMP-2 is added into the above solutions and the final concentration is about 1 g/mL. The solutions are independently reacted at 37° C. for 24 hours. The reaction results are analyzed by RPC and shown as FIG. 8A and FIG. 8B.

trypsin = experiment: Protease stability test: trypsin digestion followed by RPC-UV280; type: in vitro ADME
Excerpt: It can be expected that drug carrier in vivo circulation will face to many bio-enzymes, wherein those bio-enzymes will cut the drug carrier. Before designing proper protection to those bio-enzymes, we hope to finger out the cutting result of the recognizable sequence-CPP (cell-penetrating peptide) by bio-enzymes. In this example, trypsin is employed as the bio-enzyme. Trypsin is a protease with selectivity, especially for cutting the carboxyl side of arginine (R) or lysine (K) of protein or peptide. In this example, when CPP is IL-R57F89, there are four arginine fragments in CPP being able to be cut by trypsin. Those four arginine fragments are R5, R7, R12, and R13.
FIG. 6A and FIG. 6B are respectively the RPC-UV280 spectra of IL-R57F89 and GPLSI-P17 digested by 0.1 g/mL trypsin. The gradient elution is 20-70% ACN, 5-30 min. In the spectra, there are sampling analysis results of 5, 10, 20, 30, 60, 120, and 240 min from top to bottom. […] According to this example, it can be noticed that it has to design a proper structure for keeping the recognizable sequence-CPP of drug carrier from cut by bio-enzyme(s) before the drug carrier achieving the target cell.
Subsequently, it is important to find out proper PEG length so that the PEG can provide protection to the recognizable sequence-CPP and the PEG will not impact the anchoring of the target cell to the recognizable sequence. FIG. 7B presents the trypsin digestion results of IL-R57F89, GPLSI-P17, PEG1K-GPLSI-P17, PEG2K-GPLSI-P17, PEG5K-GPLSI-P17, and PEG5K-GPLGI-P17. […] PEG1K-GPLSI-P17 is digested about 80% after 2 hours. After digesting for 4 hours, PEG2K-GPLSI-P17 and PEGSK-GPLSI-P17 are individually digested about 50% and 45%. It can be ensured that the PEG with proper length can efficiently keep the recognizable sequence-CPP from digested by bio-enzyme. And, when adjusting the PEG length with the length of the recognizable sequence-CPP, the protection of the PEG to the recognizable sequence-CPP can be optimized. For example, to those general recognizable sequence-CPP now, the proper length of PEG is about 1000-25000 Da.

[3] = after 24 hours, FIG. 4C, 5A, 5B
[4] = 0.1 g/mL trypsin, after 2 hours, FIG. 6A, 6B
[5] = 100 µM peptide, 1 g/mL MMP-2, after digesting for 2 hours, FIG. 4A, 4B

Compound: COc1cccc2c1C(=O)c1c(O)c3c(c(O)c1C2=O)C[C@@](O)(C(=O)CO)C[C@@H]3O[C@H]1C[C@H](N)[C@H](O)[C@H](C)O1 [DOX, doxorubicin]
cytotoxicity to HepG2 cell (cell viability) (HepG2 cells [1]): do not present obvious cytotoxicity | DOX fluorescence intensity in HepG2 tumor cell cytoplasm, change with incubating time (HepG2 cells [2]): increased | cell viability of HepG2 (HepG2 cell): efficiently decrease the cell viability

Compound: CC[C@H](C)[C@H](N)C(=O)N[C@@H](CC(C)C)C(=O)N1CCC[C@H]1C(=O)N[C@@H](Cc1c[nH]c2ccccc12)C(=O)N[C@@H](CCCCN)C(=O)N[C@@H](Cc1c[nH]c2ccccc12)C(=O)N1CCC[C@H]1C(=O)N[C@@H](Cc1c[nH]c2ccccc12)C(=O)N[C@@H](Cc1c[nH]c2ccccc12)C(=O)N1CCC[C@H]1C(=O)N[C@@H](Cc1c[nH]c2ccccc12)C(=O)N[C@@H](CCCNC(=N)N)C(=O)N[C@@H](CCCNC(=N)N)C(=O)O [IL, Indolicidin]
cytotoxicity to HepG2 cell (cell viability) (HepG2 cells [1]): do not present obvious cytotoxicity

Compound: GPLSILPWRWRFFPWRR [GPLSI-P17]
digestion by trypsin (trypsin; [4]): almost digested completely | digestion by trypsin (trypsin; after about 1 hour, FIG. 7B): almost digested completely

Compound: P1: MMP-2 cut-able sequence WGPLGIAGQW
digestion by MMP-2 (MMP-2; [5]): still can be digested by MMP-2

Compound: P2: MMP-2 cut-able sequence WGPLGIAGW
digestion by MMP-2 (MMP-2; [5]): totally digested

Second part, led by results:

digestion by MMP-2 (MMP-2; [3]): totally digested
Compound: GPLGI-P17: recognizable sequence-CPP GPLG-ILPWRWRFFPWRR (SEQ ID NO: 10) (GPLGILPWRWRFFPWRR; the sequence is synthesized)

digestion by trypsin (trypsin; [4]): almost digested completely | digestion by trypsin (trypsin; after about 1 hour, FIG. 7B): almost digested completely
Compound: ILPWRWRFFPWRR [IL-R57F89]
cytotoxicity to HepG2 cell (cell viability) (HepG2 cells [1]): do not present obvious cytotoxicity

digestion by MMP-2 (MMP-2; [3]): totally digested
Compound: P4: MMP-2 cut-able sequence WGPLGILPW
